Experiments:
Male C57B16 mice [1] = experiment: Tissue ICP-AES biodistribution of Mn; format: in vivo
Procedure: Tissue ICP-AES: Biodistribution of 5 was measured in tissues 15 and 90 min after injection of (1) 0.07 mmol/kg 5 plus 2.2 mmol/kg D-glucose, (2) 0.07 mmol/kg 5 plus saline, and (3) 0.035 mmol/kg MnCl plus 2.2 mmol/kg D-glucose into male C57B16 mice. The tissue weights were recorded and digested in aqua regia for 24 hours, the digested tissue was heated to 120° C. until evaporated and re-suspended in 0.5 M HCl. For ICP-AES, Mn, Fe, and Zn concentrations were obtained by comparing to a known metal standard.

[2] = Relaxometry (T1 and T2 at 1.5 T); format: physicochemical; conditions: 37° C.
Procedure: Relaxometry: Varying concentrations of 5 (0-1 mM) were incubated with 2 mM ZnCl2, and 0.6 mM human serum albumin (HSA) at 37° C. T1 and T2 measurements were obtained at 1.5 T using a Bruker relaxometer. T1 was obtained by an inversion recovery sequence (IR, first pulse=10 ms, TR=10 s, TI=10-2500 ms), and T2 by a Carr-Prucell-Meiboom-Gill (CPMG, TE/TR=5/10000 ms, NE=700).

Male C57B16 mice [3] = experiment: In vivo T1-weighted MRI of glucose-stimulated zinc secretion
Procedure: In Vivo MRI: Male C57B16 mice were imaged at 4.7 T and 9.4 T using Varian/Agilent scanners. Mice were anesthetized with 2-5% isofluorane/oxygen mixture and their body temperature was maintained at 37° C. using heated airflow. Two ge3d T1-weighted scans were obtained as a baseline (TE/TR=1.69/3.35 ms, Average=4, θ=20°). Mice then received 0.07 mmol/kg 5 i.v. plus 2.2 mmol/kg D-Glucose i.p. and sequential 3d T1-weighted scans were obtained for 90 minutes until clearance of the agent was evident. Images were analyzed using ImageJ, organs of interest were identified, and ROIs were measured and normalized to muscle ROIs within the same slice and time point. The change in MR signal intensity is reported as a percentage compared to pre-injection scans.

[4] = Clearance route and integrity by LC-MS of urine and bile; format: in vivo
[5] = 0.035 mmol/kg i.v. plus 2.2 mmol/kg D-glucose i.p.

| longitudinal relaxivity r1 ([2]; "off" configuration (no Zn(II)/HSA)) [mM⁻¹ s⁻¹] | longitudinal relaxivity r1 ([2]; "on" configuration bound to Zn^2+ and HSA (2 mM ZnCl2, 0.6 mM HSA)) [mM⁻¹ s⁻¹] | integrity during hepatobiliary clearance ([4]; LC-MS of bile) | Compound | Mn accumulation in the heart (Male C57B16 mice [1]; [5]) | excretion route (tissue biodistribution of Mn) (Male C57B16 mice [1]; [5]) | MRI signal enhancement in organs (Male C57B16 mice [3]; 0.07 mmol/kg i.v. plus D-glucose 2.2 mmol/kg i.p., 4 minutes post injection, 9.4 T) | MRI signal enhancement in organs (Male C57B16 mice [3]; control, D-glucose not co-injected) | Mn accumulation in the heart (Male C57B16 mice [1]; 0.07 mmol/kg i.v. plus 2.2 mmol/kg D-glucose i.p.) | Mn content in tissues (biodistribution) (Male C57B16 mice [1]; 15 minutes post-injection, 0.07 mmol/kg i.v. plus 2.2 mmol/kg D-glucose i.p.) | Mn content in tissues (biodistribution) (Male C57B16 mice [1]; 90 minutes post-injection, 0.07 mmol/kg i.v. plus 2.2 mmol/kg D-glucose i.p.) | integrity after renal filtration ([4]; LC-MS of urine) |
| --- | --- | --- | --- | --- | --- | --- | --- | --- | --- | --- | --- |
|  |  |  | [Cl][Mn][Cl] [MnCl2, reference compound] | Accumulation in the heart | excreted renally and more overwhelmingly via the hepatobiliary system |  |  |  |  |  |  |
| 3.5 | 14.1 | degraded during hepatobiliary clearance | Mn—N-(6-methyl)-(2-(bis(pyridin-2-ylmethyl)amino)ethyl)-nicotinamido-N,N′ N′-trans-1,2-cyclohexylenediamine-triacetate [Compound 5] |  |  | Enhancement in the pancreas, prostate, kidneys, and liver | marginal enhancement in the prostate and pancreas | no accumulation in the heart | found primarily in the kidneys, liver, pancreas, and prostate | greatly diminished in kidney and liver tissues but accumulated in the spleen and in the prostate | excreted as an intact complex after renal filtration |

— US11267832B2, “Mn(II)-based sensors to detect zinc in vivo with MRI” (The Board of Regents of the University of Texas System, priority 2018, dated 2022)
